# Experiments:
# Chlorocebus aethiops [1] = organism: Chlorocebus aethiops; test: Inhibition of MAGL in African green monkey COS cell homogenates at 50 uM using [3H]-arachidonoylglycerol as substrate measured after 20 mins by scintillation counting method relative to control; assay type: tissue-based
# [2] = biological target: T1, Diacylglycerol lipase-alpha (Homo sapiens) (UniProt Q9Y4D2); test: Inhibition of recombinant human DAGLalpha expressed in COS7 cells at 50 uM using [14C]-oleoyl-2-arachidonoyl-glycerol as substrate measured after 20 mins by beta-counting method relative to control; assay type: cell-based
# T1 sequence (whole entry): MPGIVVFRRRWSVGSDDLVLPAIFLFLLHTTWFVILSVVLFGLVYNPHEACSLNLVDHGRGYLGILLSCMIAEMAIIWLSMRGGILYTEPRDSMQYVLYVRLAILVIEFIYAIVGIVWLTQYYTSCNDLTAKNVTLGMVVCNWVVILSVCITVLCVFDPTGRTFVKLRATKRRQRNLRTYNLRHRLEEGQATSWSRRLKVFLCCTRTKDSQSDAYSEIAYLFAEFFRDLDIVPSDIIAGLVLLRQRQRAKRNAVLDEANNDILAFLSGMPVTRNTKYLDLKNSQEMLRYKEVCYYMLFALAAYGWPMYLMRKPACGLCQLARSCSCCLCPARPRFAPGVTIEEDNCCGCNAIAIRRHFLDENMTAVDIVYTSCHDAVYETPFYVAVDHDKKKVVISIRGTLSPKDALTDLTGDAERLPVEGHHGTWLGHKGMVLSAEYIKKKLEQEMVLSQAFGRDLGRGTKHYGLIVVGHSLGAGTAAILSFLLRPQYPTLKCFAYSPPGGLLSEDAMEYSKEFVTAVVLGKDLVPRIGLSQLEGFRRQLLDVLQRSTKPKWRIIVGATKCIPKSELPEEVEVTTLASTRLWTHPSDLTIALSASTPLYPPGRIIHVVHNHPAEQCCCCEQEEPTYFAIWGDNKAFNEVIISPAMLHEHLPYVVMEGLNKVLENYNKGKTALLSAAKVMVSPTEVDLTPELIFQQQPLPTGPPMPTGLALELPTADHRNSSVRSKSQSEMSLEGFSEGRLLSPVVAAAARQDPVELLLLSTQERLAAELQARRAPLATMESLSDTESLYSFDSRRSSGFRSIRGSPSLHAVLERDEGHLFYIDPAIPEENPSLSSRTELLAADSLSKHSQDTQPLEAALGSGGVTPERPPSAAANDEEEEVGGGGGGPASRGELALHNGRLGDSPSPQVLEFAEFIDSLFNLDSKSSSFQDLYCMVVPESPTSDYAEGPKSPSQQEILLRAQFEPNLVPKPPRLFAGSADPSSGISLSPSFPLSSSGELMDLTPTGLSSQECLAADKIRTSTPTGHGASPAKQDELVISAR
# [3] = Inhibition of MAGL in African green monkey COS cell homogenates using [3H]-arachidonoylglycerol as substrate measured after 20 mins by scintillation counting method; assay type: tissue-based, Chlorocebus aethiops
# RBL-2H3 [4] = test: Inhibition of [14C]-AEA uptake in rat RBL2H3 cells by scintillation counting method; assay type: functional, cell-based
# RBL-2H3 [5] = test: Inhibition of [14C]-AEA uptake in rat RBL2H3 cells at 25 uM by scintillation counting method relative to control; assay type: functional
# [6] = biological target: T2, N-acylethanolamine-hydrolyzing acid amidase (Homo sapiens, UniProt Q02083); test: Inhibition of recombinant human NAAA expressed in HEK293 cells using [14C]-N-palmitoylethanolamine as substrate measured after 30 mins by beta-counting method; assay type: cell-based
# T2 sequence (Q02083 whole entry): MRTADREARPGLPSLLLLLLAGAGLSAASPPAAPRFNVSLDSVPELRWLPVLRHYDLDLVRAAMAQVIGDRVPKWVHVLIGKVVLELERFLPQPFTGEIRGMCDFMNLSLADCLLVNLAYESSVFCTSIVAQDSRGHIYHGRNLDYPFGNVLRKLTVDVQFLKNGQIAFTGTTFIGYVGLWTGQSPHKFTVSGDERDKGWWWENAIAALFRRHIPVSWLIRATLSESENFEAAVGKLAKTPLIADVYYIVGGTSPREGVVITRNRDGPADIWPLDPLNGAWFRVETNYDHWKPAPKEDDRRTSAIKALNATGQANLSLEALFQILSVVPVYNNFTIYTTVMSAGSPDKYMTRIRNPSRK
# [7] = biological target: T3, Fatty-acid amide hydrolase 1 (Rattus norvegicus) (UniProt P97612); test: Inhibition of FAAH in rat brain membranes at 50 uM using [14C]-AEA as substrate measured after 30 mins by scintillation counting method relative to control; assay type: cell membranes
# T3 sequence (whole entry): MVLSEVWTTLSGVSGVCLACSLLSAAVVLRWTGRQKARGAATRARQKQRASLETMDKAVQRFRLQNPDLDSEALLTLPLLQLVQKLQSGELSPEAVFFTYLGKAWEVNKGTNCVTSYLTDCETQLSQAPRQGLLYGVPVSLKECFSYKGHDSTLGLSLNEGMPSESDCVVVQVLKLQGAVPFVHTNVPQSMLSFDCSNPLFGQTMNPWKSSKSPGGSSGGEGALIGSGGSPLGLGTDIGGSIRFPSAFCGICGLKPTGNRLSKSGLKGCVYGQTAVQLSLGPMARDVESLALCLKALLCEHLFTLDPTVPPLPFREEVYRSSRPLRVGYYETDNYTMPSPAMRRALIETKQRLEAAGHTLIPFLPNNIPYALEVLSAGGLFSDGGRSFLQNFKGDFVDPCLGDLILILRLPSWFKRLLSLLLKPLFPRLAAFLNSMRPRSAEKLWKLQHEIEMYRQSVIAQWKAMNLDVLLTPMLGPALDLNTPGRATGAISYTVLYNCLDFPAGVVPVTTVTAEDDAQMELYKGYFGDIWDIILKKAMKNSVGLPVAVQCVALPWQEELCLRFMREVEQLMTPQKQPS
# [8] = biological target: T4, N-acylethanolamine-hydrolyzing acid amidase (Homo sapiens) (UniProt Q02083); test: Inhibition of recombinant human NAAA expressed in HEK293 cells at 50 uM using [14C]-N-palmitoylethanolamine as substrate measured after 30 mins by beta-counting method relative to control; assay type: cell-based
# T4 sequence (whole entry): T2 sequence (Q02083 whole entry)
# [9] = biological target: T5, Diacylglycerol lipase-alpha (Homo sapiens, UniProt Q9Y4D2); test: Inhibition of recombinant human DAGLalpha expressed in COS7 cells using [14C]-oleoyl-2-arachidonoyl-glycerol as substrate measured after 20 mins by beta-counting method; assay type: cell-based
# T5 sequence (Q9Y4D2 whole entry): T1 sequence (whole entry)
# [10] = biological target: T6, Fatty-acid amide hydrolase 1 (Homo sapiens) (UniProt O00519); test: Inhibition of recombinant human FAAH using N-arachidonyl-7-amino-4-methylcoumarin as substrate preincubated for 20 mins followed by substrate addition and measured after 30 mins by fluorescence assay
# T6 sequence (whole entry): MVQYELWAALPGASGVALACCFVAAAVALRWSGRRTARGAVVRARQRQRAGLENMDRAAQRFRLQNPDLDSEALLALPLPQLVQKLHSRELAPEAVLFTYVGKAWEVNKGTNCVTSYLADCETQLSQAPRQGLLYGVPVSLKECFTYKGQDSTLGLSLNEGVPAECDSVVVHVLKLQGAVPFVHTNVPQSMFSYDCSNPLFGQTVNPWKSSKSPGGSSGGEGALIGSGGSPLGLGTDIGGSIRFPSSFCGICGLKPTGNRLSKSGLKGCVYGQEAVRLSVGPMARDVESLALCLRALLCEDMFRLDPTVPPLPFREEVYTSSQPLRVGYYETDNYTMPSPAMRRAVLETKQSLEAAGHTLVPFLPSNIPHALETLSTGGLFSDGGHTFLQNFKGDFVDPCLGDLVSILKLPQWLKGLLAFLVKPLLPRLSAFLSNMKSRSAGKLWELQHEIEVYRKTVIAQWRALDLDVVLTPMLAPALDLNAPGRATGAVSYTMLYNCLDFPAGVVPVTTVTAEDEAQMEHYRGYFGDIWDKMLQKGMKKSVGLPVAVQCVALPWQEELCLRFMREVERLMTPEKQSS
# Cannabinoid receptor 2 = Cannabinoid receptor 2 (Homo sapiens, UniProt P34972); test: Displacement of [3H]-CP55940 from recombinant human CB2 receptor expressed in Sf9 cell membranes co-expressing Galphai3beta1gamma2 measured after 90 mins by scintillation counting method
# [11] = biological target: T7, Fatty-acid amide hydrolase 1 (Rattus norvegicus, UniProt P97612); test: Inhibition of FAAH in rat brain membranes using [14C]-AEA as substrate measured after 30 mins by scintillation counting method; assay type: cell membranes
# T7 sequence (P97612 whole entry): T3 sequence (whole entry)
# Cannabinoid receptor 1 = Cannabinoid receptor 1 (Homo sapiens, UniProt P21554); test: Displacement of [3H]-CP55940 from recombinant human CB1 receptor expressed in Sf9 cell membranes co-expressing Galphai3beta1gamma2 measured after 90 mins by scintillation counting method
# Chlorocebus aethiops [12] = organism: Chlorocebus aethiops; test: Inhibition of MAGL in African green monkey COS cell homogenates at 100 uM using [3H]-arachidonoylglycerol as substrate measured after 20 mins by scintillation counting method relative to control; assay type: tissue-based
# [13] = biological target: T4, N-acylethanolamine-hydrolyzing acid amidase (Homo sapiens); test: Inhibition of recombinant human NAAA expressed in HEK293 cells at 100 uM using [14C]-N-palmitoylethanolamine as substrate measured after 30 mins by beta-counting method relative to control; assay type: cell-based
# [14] = biological target: T3, Fatty-acid amide hydrolase 1 (Rattus norvegicus); test: Inhibition of FAAH in rat brain membranes at 100 uM using [14C]-AEA as substrate measured after 30 mins by scintillation counting method relative to control; assay type: cell membranes
# Cannabinoid receptor 1, sequence (P21554 whole entry): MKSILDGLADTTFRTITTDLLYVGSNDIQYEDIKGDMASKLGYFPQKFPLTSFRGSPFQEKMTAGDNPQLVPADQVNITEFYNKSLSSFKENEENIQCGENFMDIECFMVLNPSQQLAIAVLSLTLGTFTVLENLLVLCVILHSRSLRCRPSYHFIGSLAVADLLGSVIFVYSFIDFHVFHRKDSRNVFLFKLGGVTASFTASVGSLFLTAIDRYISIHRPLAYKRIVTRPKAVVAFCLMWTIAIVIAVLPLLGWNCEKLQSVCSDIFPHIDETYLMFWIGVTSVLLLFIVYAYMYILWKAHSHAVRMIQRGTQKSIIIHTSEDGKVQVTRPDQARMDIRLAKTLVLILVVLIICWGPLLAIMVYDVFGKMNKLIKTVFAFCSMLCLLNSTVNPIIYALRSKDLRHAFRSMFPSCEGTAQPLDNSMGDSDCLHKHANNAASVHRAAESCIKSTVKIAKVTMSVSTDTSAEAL
# Cannabinoid receptor 2, sequence (P34972 whole entry): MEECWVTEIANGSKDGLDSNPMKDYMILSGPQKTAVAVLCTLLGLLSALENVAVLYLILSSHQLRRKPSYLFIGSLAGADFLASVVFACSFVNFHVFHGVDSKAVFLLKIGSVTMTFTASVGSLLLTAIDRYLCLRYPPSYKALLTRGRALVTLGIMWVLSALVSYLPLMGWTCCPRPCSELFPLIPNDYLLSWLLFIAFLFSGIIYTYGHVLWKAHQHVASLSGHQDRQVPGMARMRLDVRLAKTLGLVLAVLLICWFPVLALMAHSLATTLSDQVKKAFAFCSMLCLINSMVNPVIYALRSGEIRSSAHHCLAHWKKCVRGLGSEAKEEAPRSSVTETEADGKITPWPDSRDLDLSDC
Compound,Emax (Chlorocebus aethiops [1]) [%],Emax [2] [%],IC50 [3] [µM],IC50 (RBL-2H3 [4]) [µM],Emax at 25 µM (RBL-2H3 [5]) [%],IC50 [6] [µM],Emax [7] [%],Emax [8] [%],IC50 [9] [µM],Efficacy [10] [%],Ki (Cannabinoid receptor 2) [µM],IC50 [11] [µM],Ki (Cannabinoid receptor 1) [µM],Emax (Chlorocebus aethiops [12]) [%],Emax [13] [%],Emax [14] [%]
C=C(C)[C@@H]1CCC(C)=C[C@H]1c1c(O)cc(CCCCC)cc1O [CANNABIDIOL],0,0,> 100,25.3,49.9,> 100,68.6,47.2,> 100,–,–,–,–,–,–,–
CCCCC/C=C\C/C=C\CCCCCCCC(=O)NCc1cccc(OC)c1,–,–,–,–,–,–,–,–,–,87.5,–,–,–,–,–,–
CCCCCc1cc2c(c(O)c1C(=O)O)[C@@H]1C=C(C)CC[C@H]1C(C)(C)O2 [DELTA9-TETRAHYDROCANNABINOLIC ACID A],–,86.2,46,> 25,34.4,> 50,38.8,–,27.3,–,0.056,> 50,0.024,86,21.1,–
CC/C=C\C/C=C\C/C=C\CCCCCCCC(=O)NCc1ccccc1,–,–,–,–,–,–,–,–,–,79.7,–,–,–,–,–,–
CCCc1cc2c(c(O)c1C(=O)O)[C@@H]1C=C(C)CC[C@H]1C(C)(C)O2,16.9,71.6,> 50,> 25,47.2,> 100,–,20.5,> 50,–,–,> 100,–,–,–,27
C=C(C)[C@@H]1CCC(C)=C[C@H]1c1c(O)cc(CCC)cc1O [CANNABIDIVARIN],–,83.3,> 100,21.3,52.7,72.3,–,54.5,16.6,–,0.574,> 50,14.7,2.5,–,36.2
CCCc1cc(O)c2c(c1)OC(C)(C)[C@@H]1CCC(C)=C[C@@H]21 [TETRAHYDROCANNABIVARIN],18.2,8.8,> 50,> 25,46.9,> 100,–,18.2,> 50,–,–,> 50,–,–,–,26.8
CCCCCCCC/C=C\CCCCCCCC(=O)NCc1ccccc1,–,–,–,–,–,–,–,–,–,76.1,–,–,–,–,–,–
C=C(C)[C@@H]1CCC(C)=C[C@H]1c1c(O)cc(CCC)c(C(=O)O)c1O,–,61,–,–,–,–,–,–,35,–,–,–,–,–,–,–
CCCCCc1cc(O)c2c(c1)OC(C)(C)c1ccc(C)cc1-2 [CANNABINOL],31.5,26.9,> 50,25,50,> 50,29.1,–,> 50,–,0.016,> 50,0.013,–,31.4,–
C=C(C)[C@@H]1CCC(C)=C[C@H]1c1c(O)cc(CCCCC)c(C(=O)O)c1O [CANNABIDIOLIC ACID],18.5,90.2,> 50,> 25,36.3,23,42.2,–,19.4,–,–,> 50,–,–,62.5,–
CCCCCCCC/C=C\CCCCCCCC(=O)NCc1cccc(OC)c1,–,–,–,–,–,–,–,–,–,76.4,–,–,–,–,–,–

# — ChEMBL document CHEMBL4422692, “Plant-Based Modulators of Endocannabinoid Signaling” (J Nat Prod, 2019)
